The structures appear in SMILES notation.

The target in the experiment is T1, human ACC2 (Homo sapiens, UniProt O00763).
T1 construct: made in house; host or cells: insect cells (baculoviral expression system)
T1 sequence (O00763 129-2458 limits assumed): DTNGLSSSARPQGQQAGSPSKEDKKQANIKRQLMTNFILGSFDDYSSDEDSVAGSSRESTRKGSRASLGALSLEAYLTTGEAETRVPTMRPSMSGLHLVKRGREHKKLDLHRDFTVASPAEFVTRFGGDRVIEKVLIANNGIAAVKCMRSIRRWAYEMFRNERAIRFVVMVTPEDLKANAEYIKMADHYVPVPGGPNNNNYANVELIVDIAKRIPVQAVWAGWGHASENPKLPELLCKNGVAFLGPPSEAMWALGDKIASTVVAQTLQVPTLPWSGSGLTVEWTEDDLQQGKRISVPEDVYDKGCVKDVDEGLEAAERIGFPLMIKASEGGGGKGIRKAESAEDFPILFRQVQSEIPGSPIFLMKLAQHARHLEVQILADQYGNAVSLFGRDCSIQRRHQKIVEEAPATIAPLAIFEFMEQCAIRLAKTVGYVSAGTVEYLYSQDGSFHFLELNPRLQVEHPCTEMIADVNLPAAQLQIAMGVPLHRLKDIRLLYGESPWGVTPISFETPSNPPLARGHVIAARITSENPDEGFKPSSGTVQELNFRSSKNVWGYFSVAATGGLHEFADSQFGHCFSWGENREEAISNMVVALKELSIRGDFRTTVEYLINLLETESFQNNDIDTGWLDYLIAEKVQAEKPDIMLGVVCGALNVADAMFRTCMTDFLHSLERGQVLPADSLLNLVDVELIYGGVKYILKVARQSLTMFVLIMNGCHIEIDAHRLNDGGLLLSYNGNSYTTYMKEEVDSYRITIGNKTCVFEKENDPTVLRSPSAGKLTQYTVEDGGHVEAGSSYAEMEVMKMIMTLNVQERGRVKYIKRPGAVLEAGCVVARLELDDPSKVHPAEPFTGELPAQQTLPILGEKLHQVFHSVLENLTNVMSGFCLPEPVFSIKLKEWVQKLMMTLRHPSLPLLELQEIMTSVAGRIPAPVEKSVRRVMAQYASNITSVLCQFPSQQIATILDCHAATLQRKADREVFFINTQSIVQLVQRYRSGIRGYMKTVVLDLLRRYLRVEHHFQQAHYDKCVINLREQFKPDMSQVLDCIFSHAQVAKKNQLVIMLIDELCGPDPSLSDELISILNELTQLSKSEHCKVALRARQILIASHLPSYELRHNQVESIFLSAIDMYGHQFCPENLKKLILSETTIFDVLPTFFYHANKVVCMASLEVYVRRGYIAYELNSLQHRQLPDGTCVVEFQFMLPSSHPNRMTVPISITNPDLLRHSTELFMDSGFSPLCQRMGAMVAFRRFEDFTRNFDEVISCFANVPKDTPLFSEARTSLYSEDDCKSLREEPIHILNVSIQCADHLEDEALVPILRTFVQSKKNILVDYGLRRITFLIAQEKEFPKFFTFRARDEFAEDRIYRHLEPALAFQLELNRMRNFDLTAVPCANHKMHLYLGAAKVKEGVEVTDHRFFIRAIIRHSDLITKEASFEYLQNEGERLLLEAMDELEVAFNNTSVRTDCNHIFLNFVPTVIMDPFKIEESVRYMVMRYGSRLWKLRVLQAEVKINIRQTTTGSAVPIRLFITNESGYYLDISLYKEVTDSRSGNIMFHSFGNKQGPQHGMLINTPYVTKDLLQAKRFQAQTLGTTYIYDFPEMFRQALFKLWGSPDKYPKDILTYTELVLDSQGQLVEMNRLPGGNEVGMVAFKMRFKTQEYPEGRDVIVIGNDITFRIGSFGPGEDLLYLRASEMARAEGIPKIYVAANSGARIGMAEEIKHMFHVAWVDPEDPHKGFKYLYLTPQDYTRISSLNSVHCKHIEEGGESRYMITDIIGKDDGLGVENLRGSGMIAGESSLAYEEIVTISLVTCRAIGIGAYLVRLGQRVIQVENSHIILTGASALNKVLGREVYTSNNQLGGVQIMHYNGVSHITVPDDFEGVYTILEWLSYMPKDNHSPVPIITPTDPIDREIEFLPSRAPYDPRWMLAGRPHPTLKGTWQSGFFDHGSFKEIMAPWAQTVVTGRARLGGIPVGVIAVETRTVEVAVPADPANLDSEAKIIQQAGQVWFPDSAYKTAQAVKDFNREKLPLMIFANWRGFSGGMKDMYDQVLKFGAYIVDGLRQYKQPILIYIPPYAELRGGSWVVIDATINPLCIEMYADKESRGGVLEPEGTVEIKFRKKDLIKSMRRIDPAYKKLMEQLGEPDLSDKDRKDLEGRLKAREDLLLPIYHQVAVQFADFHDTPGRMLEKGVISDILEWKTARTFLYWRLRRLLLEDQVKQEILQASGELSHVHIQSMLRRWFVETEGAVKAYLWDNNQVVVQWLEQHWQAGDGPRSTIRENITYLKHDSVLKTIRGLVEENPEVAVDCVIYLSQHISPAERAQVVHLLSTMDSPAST
The experiment can be described thus: ACC2 assay, spectrophotometric 384 well assay (NADH-linked, coupled lactate dehydrogenase/pyruvate kinase). It is filed as biochemical. To be noted: ACC2 assay, hACC2 construct lacking 128 N-terminal amino acids, 25° C., 340 nm; read-out: IC50. In a few lines: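 ADP output tracked via pyruvate kinase/lactate dehydrogenase NADH oxidation, slope at 340 nm over 15 min, 25° C, with 500 μM ATP and 200 μM each acetyl-CoA and NADH. Enzyme: insect-cell-expressed human ACC2, N-terminal 128 residues deleted; pH 7.5 Tris with citrate, KHCO3. IC50 from four-parameter regression versus vehicle and no-acetyl-CoA controls.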
Turning to `CC(=O)N[C@@H](C)c1ccc(C2CCN(c3ncc(C(=O)N(C)C4CCN(C)C4)cn3)CC2)cc1` (stereo partly drawn) [Example 18.84], the IC50 stood at 18100 nM.

`CC(=O)N[C@@H](C)c1ccc(C2CCN(c3ccc(-c4nc5ccccc5[nH]4)cn3)CC2)cc1` [Example 5.25]: the IC50 is 2400 nM.

As for `CC(=O)N[C@@H](C)c1ccc(C2CCN(c3ccc(OCc4ccccc4)nc3)CC2)cc1` [Example 1.54], the IC50 amounted to 130 nM.

Consider `CC(=O)N[C@@H](C)c1ccc(C2CCN(c3ccc(OC4CCC4)cc3C#N)CC2)cc1` [Example 1.51], for which the IC50 is 90 nM.

As to `COC(=O)c1cncc(N2CCC(c3ccc([C@H](C)NC(C)=O)cc3)CC2)n1` [Example 5.54], the IC50 is 9300 nM.

Regarding `CC(=O)N[C@@H](C)c1ccc(C2CCN(c3ccnc(N(C)Cc4ccccc4)n3)CC2)cc1` [Example 11.83], the IC50 is 410 nM.

For the molecule `CCCOc1cnc(N2CCC(c3ccc([C@H](C)NC(=O)C4CC4)cc3)CC2)nc1` [Example 4.305], the IC50 is 1400 nM.

For the molecule `CCC(=O)N[C@@H](C)c1ccc(C2CCN(c3ccc4c(c3)OCCO4)CC2)cc1` [Example 1.146], the IC50 was found to be 1100 nM.

For `CC(=O)N[C@@H](C)c1ccc(C2CCN(c3ncc(C(=O)Nc4ccccc4F)cn3)CC2)cc1` [Example 18.6], the IC50 was 260 nM.

Turning to `C[C@H](NC(=O)N(C)C)c1ccc(C2CCN(c3ccnc(Oc4ccccc4)c3)CC2)cc1` [Example 1.138], the IC50 is 160 nM.

In the case of `CCOc1nccc(N2CCC(c3ccc([C@H](C)NC(C)=O)cc3)CC2)n1` [Example 11.37], the IC50 turned out to be 930 nM.

Regarding `CC(=O)N[C@@H](C)c1ccc(C2CCN(c3ncc(C(=O)NCc4ncccn4)cn3)CC2)cc1` [Example 18.34], the IC50 came out at 3500 nM.

As for `CC(=O)N[C@@H](C)c1ccc(C2CCN(c3ccc(OCC(F)F)cc3)CC2)cc1` [Example 1.164], the IC50 stood at 770 nM.

`CC(=O)N[C@@H](C)c1ccc(C2CCN(c3cccc(C(=O)O)c3)CC2)cc1` [Example 28.1, (S)-3-(4-(4-(1-Acetamidoethyl)phenyl)piperidin-1-yl)benzoic acid]: the IC50 is 9300 nM.

`CCOc1ccc(N2CCC(c3ccc([C@H](C)NC(=O)c4cnon4)cc3)CC2)cc1` [Example 6.36]: the IC50 came out at 9100 nM.

On to `C[C@H](NC(=O)C1CC1)c1ccc(C2CCN(c3ccc4c(c3)OCC(C)(C)CO4)CC2)cc1` [Example 1.87], for which the IC50 worked out at 1200 nM.

`Cc1cccc(-c2cnc(N3CCC(c4ccc([C@H](C)NC(=O)C5CC5)cc4)CC3)nc2)c1` [Example 10.100]: the IC50 was 90 nM.

`COc1ncc(N2CCC(c3ccc([C@H](C)NC(C)=O)cc3)CC2)cn1` [Example 16.2]: the IC50 was 4800 nM.

In the case of `C[C@H](NC(=O)N(C)C)c1ccc(C2CCN(c3ccc(OCC4CC4)cc3)CC2)cc1` [Example 1.24], the IC50 was 210 nM.

As to `CC(=O)N[C@@H](C)c1ccc(C2CCN(c3ncc(-c4ccc(Cl)c(C)c4)cn3)CC2)cc1` [Example 10.76], the IC50 came to 110 nM.

Turning to `CCNC(=O)c1cccc(N2CCC(c3ccc([C@H](C)NC(C)=O)cc3)CC2)c1` [Example 29.3], the IC50 was found to be 6700 nM.

For `CCOc1ccc(N2CCC(c3ccc([C@H](C)NC(C)=O)cc3)CC2)cc1C#N` [Example 8.16], the IC50 amounted to 5600 nM.

`CC(=O)N[C@@H](C)c1ccc(C2CCN(c3cc(NC(C)c4ccccc4)ncn3)CC2)cc1` (stereo partly drawn) [Example 11.40]: the IC50 amounted to 8100 nM.

As for `CC(=O)N[C@@H](C)c1ccc(C2CCN(c3cccc(OC4CCOCC4)c3)CC2)cc1` [Example 7.2], the IC50 worked out at 190 nM.

As for `CCCOc1ccc(N2CCC(c3ccc([C@H](C)NC(=O)OC)cc3)CC2)cc1` [Example 1.13], the IC50 was 100 nM.

For `CCCOc1ccc(N2CCC(c3ccc([C@H](C)NC(C)=O)cc3)CC2)cc1F` [Example 8.62], the IC50 is 200 nM.

`CC(=O)N[C@@H](C)c1ccc(C2CCN(c3ccc(OC(C)C)cc3F)CC2)cc1` [Example 1.74]: the IC50 came to 100 nM.

Usually IC50 stands for the midpoint of a concentration-inhibition curve.
